Experimental findings from patent US20160166572A1, “BENEFICIAL EFFECTS OF Lp-PLA2 INHIBITORS IN TREATMENT OF DIABETIC RETINOPATHY AND AGE-RELATED MACULAR DEGENERATION” (Rowan University, priority 2014, published 2016) are described below.

One experiment relates to porcine retina. The experiment can be described thus: Determination of retinal layer thickness (H&E, ImagePro) in DMHC porcine model. As to conditions: DMHC pigs, Darapladib 10 mg/kg/d orally, 24 weeks. It counts as in vivo, pig. Here is the method:
Briefly, after induction of diabetes by a single injection of Streptozotocin, animals were fed a high cholesterol diet. After a month of DMHC induction and acclimation, animals were randomly segregated to untreated DMHC and Darapladib-treated DMHC groups. Darapladib-treated pigs received 10 mg/kg/d of Darapladib orally. Three of the pigs were spared from DMHC induction and served as age-matched, non-DMHC normal controls. Twenty four weeks after acclimation, animals were euthanized and their brains and eyes were immediately removed. Brains were divided anteroposteriorly into anterior, middle and posterior regions. For each of these brain regions, 2-3 tissue blocks were generated for routine tissue fixation (10% formalin) or freezing and histological processing. The anterior cortical region comprised of anterior ⅔ of frontal lobe and anterior ⅓ of temporal lobe. The middle cortical region contained mid ⅓ of temporal lobe and anterior ½ of the parietal lobe. The posterior cortex included the posterior ½ of the parietal lobe, posterior ⅓ of the temporal lobe and the occipital lobe. Eyes were dissected longitudinally to sever the retina at the optic nerve. The sections were fixed in 10% formalin and embedded as flattened disc in paraffin. The tissue samples were processed using routine histology techniques. Standard Hematoxylin & Eosin (H&E) staining (FIG. 1) was carried out in retinal sections. The remarkably uniform and laminated histological architecture of the retina lends itself well to direct measurements of the thickness of the various layers as shown in FIG. 1. Using the image analysis software, ImagePro 7.0 (Media Cybernetics, Silver Spring, Md.), the thickness of all retinal layers were measured. The thickness of each retinal layer was measured in three separate retinal sections obtained from each animal. In each section, measurements were made at two randomly selected locations in the middle part of retina. Results were averaged for each pig. The identity of specimens was blinded and two independent investigators carried out this analysis. In addition, the percentage contribution of each retinal layer to the total thickness of the retina was calculated and compared among the different treatment groups (FIG. 2). The thickness of the individual layers of the retina was measured in transverse sections stained with Hematoxylin and Eosin using the image analysis software, ImagePro 7.0.

In experiment [1] the test system is ganglion cells in the GCL. The experiment can be described thus: Extravasated IgG in retina (anti-swine IgG IHC) as evidence of BRB compromise, DMHC pigs. It counts as in vivo, pig. As to conditions: Darapladib 10 mg/kg/d orally, 24 weeks. Here is the method:
Briefly, after induction of diabetes by a single injection of Streptozotocin, animals were fed a high cholesterol diet. After a month of DMHC induction and acclimation, animals were randomly segregated to untreated DMHC and Darapladib-treated DMHC groups. Darapladib-treated pigs received 10 mg/kg/d of Darapladib orally. Three of the pigs were spared from DMHC induction and served as age-matched, non-DMHC normal controls. Twenty four weeks after acclimation, animals were euthanized and their brains and eyes were immediately removed. Brains were divided anteroposteriorly into anterior, middle and posterior regions. For each of these brain regions, 2-3 tissue blocks were generated for routine tissue fixation (10% formalin) or freezing and histological processing. The anterior cortical region comprised of anterior ⅔ of frontal lobe and anterior ⅓ of temporal lobe. […] Extravasated IgG was detected using biotinylated anti-swine IgG antibody (Vector laboratories, Inc., Catalogue # BA-9020; dilution 1:100). […] Slides were examined and photographed with a Nikon FXA microscope, and digital images were recorded using a Nikon DXM1200F digital camera and analyzed using MATLAB (MathWorks, Mass., USA) and NIS-elements software (Nikon, Melville, N.Y.). […] The percentage of IgG-positive ganglion cells relative to total ganglion cells in the GCL was calculated. […]

The subject of another experiment is BBB. The experiment in a line: BBB permeability, IgG binding and Aβ42 deposition in cerebral cortex, animal model of DM and hypercholesterolemia. It counts as in vivo.

With `CCN(CC)CCN(Cc1ccc(-c2ccc(C(F)(F)F)cc2)cc1)C(=O)Cn1c(SCc2ccc(F)cc2)nc(=O)c2c1CCC2` [Darapladib], the “thickness of ganglion cell layer (GCL)” value with porcine retina (FIG. 2B) is on record as “comparable to controls”. For the same molecule, the “thickness of outer nuclear layer (ONL)” value with porcine retina (FIG. 2C) is on record as “comparable to controls”. In the experiment with porcine retina (FIG. 2D), the “thickness of inner-segment (IS)/outer-segment (OS) layer” value is on record as “comparable to controls”. For the same molecule, the “thickness of inner plexiform layer (IPL)” value in the experiment with porcine retina (FIG. 2E) is “lowered IPL thickness in DMHC animals to near control levels”. The “thickness of inner nuclear layer (INL)” value in the experiment on porcine retina (FIG. 2F) was “comparable thickness across all treatment groups”. Further, in experiment [1], the “plasma and IgG influx into retinal layers” value was “curtailed plasma and IgG influx into retinal layers”. The “percentage of IgG-positive ganglion cells relative to total ganglion cells in the GCL” value in experiment [1] (rank among treatment groups, FIG. 4D) was “followed by untreated controls and then the DMHC-Darapladib group”. Moreover, in the experiment on BBB, the “Aβ42 deposition in cortical pyramidal neurons” value was “reverse”, the BBB permeability result was “reverse” and the “IgG binding in cortical pyramidal neurons” value was “reverse”.
